Test results from paper PMC7179673, “A New Series of Carlactonoic Acid Based Strigolactone Analogs for Fundamental and Applied Research” (Frontiers in Plant Science, 2020).
Where two headings read alike, the source gives them in different places.

Key:
[1] = target: T1, ShHTL7 (Striga hermonthica Hyposensitive to Light) (Striga hermonthica, UniProt A0A0M3PNA2); test: competitive YLG (Yoshimulactone Green) hydrolysis assay with purified protein; type: biochemical
T1 sequence (A0A0M3PNA2 1-271): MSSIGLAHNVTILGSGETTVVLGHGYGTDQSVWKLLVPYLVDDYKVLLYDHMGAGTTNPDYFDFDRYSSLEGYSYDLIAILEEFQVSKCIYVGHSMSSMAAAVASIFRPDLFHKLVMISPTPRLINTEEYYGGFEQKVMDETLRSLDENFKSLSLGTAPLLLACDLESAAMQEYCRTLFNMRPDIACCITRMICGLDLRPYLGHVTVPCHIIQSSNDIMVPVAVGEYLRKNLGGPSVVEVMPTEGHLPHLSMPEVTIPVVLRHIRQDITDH

OsD14 = target: T2, OsD14 (Oryza sativa, UniProt Q10QA5); test: as above; type: biochemical
T2 construct: gene D14
T2 sequence (Q10QA5 1-318): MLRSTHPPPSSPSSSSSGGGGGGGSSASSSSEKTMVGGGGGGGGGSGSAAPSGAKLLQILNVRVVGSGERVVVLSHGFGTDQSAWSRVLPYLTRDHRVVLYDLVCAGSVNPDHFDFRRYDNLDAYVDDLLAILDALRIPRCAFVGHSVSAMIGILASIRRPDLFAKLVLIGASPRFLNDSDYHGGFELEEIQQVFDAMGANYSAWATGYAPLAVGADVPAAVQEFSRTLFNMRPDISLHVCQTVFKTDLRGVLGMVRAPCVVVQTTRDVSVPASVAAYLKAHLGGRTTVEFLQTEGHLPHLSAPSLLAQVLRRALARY

IC50 ([1]; read-out: IC50) [nM]	SMILES	IC50 (OsD14) [nM]	IC50 [1] [nM]
4370 ± 210	CC1=CC(O/C=C(\C(=O)N(C)C)c2ccccc2)OC1=O (stereo not drawn) [MP16, (Z)-N,N-Dimethyl-3-((4-methyl-5-oxo-2,5-dihydrofuran-2-yl)oxy)-2-phenylacrylamide]	–	–
–	CC1=C[C@H](O/C=C2/C(=O)O[C@@H]3c4ccccc4C[C@H]23)OC1=O (racemic) [GR24, rac-GR24]	1040 ± 90	980 ± 260
